PubChem BioAssay (NCI)
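Interpolation was linear, between the two tested concentrations surrounding the appropriate level; five concentrations were tested over 48 hours in 96-well plates. GI50 = concentration required for 50% inhibition of growth. The concentration for full growth arrest is given as TGI.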

Legend:
Assay in all cases: NCI anticancer screen, dose series, 48 h
[1] = test system: NCI-H226 lung
[2] = test system: HOP-62 NSCLC
[3] = test system: A549 NSCLC
[4] = test system: HS 578T breast
[5] = test system: CAKI-1 renal
[6] = test system: MOLT-4 leukemia
[7] = test system: SF-268 CNS
[8] = test system: MALME-3M melanoma
[9] = test system: BT-549 breast
[10] = test system: NCI-H522 lung

Row | SMILES | GI50 [1] [µM] | TGI [1] [µM] | GI50 [2] [µM] | TGI [2] [µM] | GI50 [3] [µM] | TGI [3] [µM] | GI50 [4] [µM] | TGI [4] [µM] | GI50 [5] [µM] | TGI [5] [µM] | GI50 [6] [µM] | TGI [6] [µM] | GI50 [7] [µM] | TGI [7] [µM] | GI50 [8] [µM] | TGI [8] [µM] | GI50 [9] [µM] | TGI [9] [µM] | GI50 [10] [µM] | TGI [10] [µM]
1 | COc1ccc(/C=C\c2cc(OC)c(OC)c(OC)c2)cc1N/C=C\C(=O)c1c[nH]c2ccccc12 | 0.016 | > 100 | < 0.01 | > 100 | < 0.01 | > 100 | < 0.01 | > 100 | < 0.01 | > 100 | < 0.01 | > 100 | < 0.01 | > 100 | 5 | 57.2 |  |  |  | 
2 | CCSc1nc(N)c(C#N)c(-c2ccc(OC)c(OC)c2)c1C#N |  |  | 18.4 | > 50 | 17 | > 50 | 13.1 | 43.7 | 16.6 | > 50 |  |  | 11.1 | 35.1 |  |  | 39.5 | > 50 | 10.2 | 35.2
3 | NC(CCSCCF)C(=O)O (stereo unspecified) |  | > 100 |  | > 100 |  | > 100 |  |  |  | > 100 |  | > 100 |  | > 100 |  |  |  |  |  | > 100
4 | Cc1cccc(/C=N/N=C(\N)NO)n1 |  |  |  | > 100 |  | > 100 |  |  |  | > 100 |  | > 100 |  | > 100 |  | > 100 |  |  |  | > 100
5 | CC(C(=O)c1ccc(O)cc1)C1(O)C(=O)Nc2c(Cl)cc(Cl)cc21 (stereo unspecified) |  | > 100 |  | > 100 |  | > 100 |  |  |  | > 100 |  | > 100 |  | > 100 |  | > 100 |  |  |  | 57.8
6 | COC(=O)c1ccc(N/C=C(/C#N)c2ccsc2)cc1 |  | 39 |  | 28.2 |  | 40.3 |  |  |  | 30.5 |  | > 100 |  | 37 |  | 36.2 |  |  |  | 
7 | COC(=O)CCC(=O)Nc1cc(C)ccc1C |  | > 100 |  | > 100 |  | > 100 |  |  |  | > 100 |  | > 100 |  |  |  | > 100 |  |  |  | > 100
8 | COc1ncc(-c2ccc3ncnc(Nc4cccc(Cl)c4)c3c2)cc1NS(C)(=O)=O | 4.83 | 24.2 | 1.53 | 42.4 | 1.2 | 13.2 | 0.852 | 9.52 | 0.457 | 10.8 | 1.49 | 5.21 | 1.99 | 19.2 |  |  | 1.92 | 9.32 | 2.14 | 18.4
9 | C=CC(=O)OCCCS(=O)(=O)[O-].C=CC(=O)OCCCS(=O)(=O)[O-].NC1CCCCC1N.[Pt+4] | > 25 | > 25 |  |  | > 25 | > 25 |  |  | > 25 | > 25 | > 25 | > 25 | > 25 | > 25 | > 25 | > 25 |  |  | > 25 | > 25
10 | COc1ccccc1N1CCN(CC(O)Cn2c(=O)c3c(OC)nc(C)cc3c(=O)n2-c2ccccc2)CC1 (stereo unspecified) | > 100 | > 100 | 43.7 | > 100 | > 100 | > 100 | 25.7 | > 100 | 32.7 | > 100 | > 100 | > 100 | 62.1 | > 100 | > 100 | > 100 |  |  | > 100 | > 100
11 | CCCCCCCCCCCc1cc(=O)c2c(O)cccc2o1 |  | > 100 |  | > 100 |  | > 100 |  |  |  | > 100 |  | > 100 |  | > 100 |  | > 100 |  |  |  | > 100
12 | Nc1ccccc1-n1c2c(c3ccccc3c1=O)C(=O)c1ccccc1-2 |  | > 100 |  | 22.9 |  | > 100 |  |  |  | 50.7 |  | > 100 |  | 48.2 |  | 85.5 |  | 12.9 |  | 25.6
13 | COc1ccccc1NC(=O)C1=C(C)NC(C)=C(C(=O)Nc2ccccc2OC)C1c1ccc(C2C(C(=O)Nc3ccccc3OC)=C(C)NC(C)=C2C(=O)Nc2ccccc2OC)cc1 |  | 12.1 |  | 14 |  | > 60.4 |  |  |  | 11.3 |  | 17.8 |  | 11.6 |  | 7.94 |  |  |  | 3.52
14 | [N-]=[N+]=Nc1nnc(CCCCc2nnc(N=[N+]=[N-])o2)o1 |  | > 100 |  | > 100 |  | > 100 |  |  |  |  |  | > 100 |  | > 100 |  | > 100 |  |  |  | > 100
15 | O=C1Nc2cc(-c3ccc(O)cc3)ccc2/C1=C/c1ccc[nH]1 | 0.673 | > 100 | 0.559 | > 100 | 0.484 | > 100 |  |  | 0.0435 | 3.59 | 0.158 | > 32.5 | 0.44 | > 100 | 0.474 | 5.28 | 0.396 | 13.3 | 0.258 | > 20.1
16 | O=CCC(O)C(O)C(O)CO (stereo unspecified) | > 100 | > 100 | > 100 | > 100 | > 100 | > 100 | > 100 | > 100 | > 100 | > 100 | > 100 | > 100 | > 100 | > 100 | > 100 | > 100 |  |  | > 100 | > 100
17 | CCSc1nnc(-c2ccc3ccccc3c2O)n1-c1ccccc1 |  |  | 21.5 | > 100 |  |  | > 100 | > 100 |  |  | > 100 | > 100 | 8.02 | > 100 | 69.7 | > 100 | > 100 | > 100 | 4.27 | > 100
18 | COc1cc2ccnc(-c3n[nH]c4cc(OC)c(OC)cc34)c2cc1OC |  | > 100 |  | > 100 |  | > 100 |  |  |  | > 100 |  | > 100 |  | > 100 |  | > 100 |  |  |  | 69.7
